Results: PubChem BioAssay (NCI)
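How tested: cells in 96-well plates exposed to compound for 48 hours at five concentrations. GI50: concentration for 50% inhibition of growth. TGI marks complete inhibition of growth.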

How the values were obtained:
Assay in all cases: NCI-60 cell line screen, 48 h
SK-MEL-5 melanoma = test system: SK-MEL-5 melanoma
SR leukemia = test system: SR leukemia
SNB-75 CNS = test system: SNB-75 CNS
SW-620 colon = test system: SW-620 colon
SK-OV-3 ovarian = test system: SK-OV-3 ovarian
PC-3 prostate = test system: PC-3 prostate
HCT-116 colon = test system: HCT-116 colon
HS 578T breast = test system: HS 578T breast
LOX IMVI melanoma = test system: LOX IMVI melanoma
OVCAR-8 ovarian = test system: OVCAR-8 ovarian

`O=C1/C(=C/c2ccccc2)CN(CCC(=O)N2C/C(=C\c3ccccc3)C(=O)/C(=C/c3ccccc3)C2)C/C1=C\c1ccccc1` gave a GI50 (SK-MEL-5 melanoma) of 14.1 µM, a TGI (SK-MEL-5 melanoma) of 47.2 µM and a GI50 (SR leukemia) of 0.295 µM. For the same compound, the TGI (SR leukemia) was > 100 µM, the GI50 (SNB-75 CNS) was 10.7 µM and the TGI (SNB-75 CNS) was 35.3 µM. It also gave a GI50 (SW-620 colon) of 0.495 µM, a TGI (SW-620 colon) of 49.8 µM and a GI50 (SK-OV-3 ovarian) of 24.9 µM. The TGI (SK-OV-3 ovarian) was > 75.2 µM, the GI50 (PC-3 prostate) was 6.02 µM and the TGI (PC-3 prostate) was > 69.9 µM. For the same compound, the GI50 (HCT-116 colon) was 0.346 µM, the TGI (HCT-116 colon) was 4.17 µM and the GI50 (HS 578T breast) was 10.7 µM. The TGI (HS 578T breast) was 55.4 µM, the GI50 (LOX IMVI melanoma) was 0.628 µM and the TGI (LOX IMVI melanoma) was 4.32 µM. The GI50 (OVCAR-8 ovarian) was 5.4 µM and the TGI (OVCAR-8 ovarian) was > 100 µM.

Work on `N#C/C(=C/C=C/c1ccccc1)S(=O)c1ccccc1` (stereo not drawn) yielded a GI50 (SK-MEL-5 melanoma) of 1.65 µM, a TGI (SK-MEL-5 melanoma) of 3.05 µM and a GI50 (SR leukemia) of 0.281 µM. It also gave a TGI (SR leukemia) of 4.51 µM, a GI50 (SNB-75 CNS) of 0.904 µM and a TGI (SNB-75 CNS) of 3.01 µM. It also gave a GI50 (SW-620 colon) of 0.337 µM, a TGI (SW-620 colon) of 1.13 µM and a GI50 (SK-OV-3 ovarian) of 2.5 µM. For the same compound, the TGI (SK-OV-3 ovarian) was 10.9 µM, the GI50 (PC-3 prostate) was 1.35 µM and the TGI (PC-3 prostate) was 3.33 µM. The GI50 (HS 578T breast) was 2.95 µM, the TGI (HS 578T breast) was 39.8 µM and the GI50 (LOX IMVI melanoma) was 0.163 µM. For the same compound, the TGI (LOX IMVI melanoma) was 0.337 µM, the GI50 (OVCAR-8 ovarian) was 0.338 µM and the TGI (OVCAR-8 ovarian) was 1.73 µM.

Compound `CN(C)CCCN=c1cc2c(=O)n(CCCN(C)C)c(=O)c3c(NCCCN(C)C)cc4c(O)n(CCCN(C)C)c(=O)c1c4c3-2` has a GI50 (SK-MEL-5 melanoma) of 3.03 µM, a TGI (SK-MEL-5 melanoma) of 11.2 µM and a GI50 (SR leukemia) of 8.39 µM. It also gave a TGI (SR leukemia) of 56 µM, a GI50 (SNB-75 CNS) of 1.25 µM and a TGI (SNB-75 CNS) of 3.68 µM. It also gave a GI50 (SW-620 colon) of 0.79 µM, a TGI (SW-620 colon) of 15.6 µM and a GI50 (SK-OV-3 ovarian) of 1.88 µM. The TGI (SK-OV-3 ovarian) was 6.93 µM, the GI50 (PC-3 prostate) was 2.79 µM and the TGI (PC-3 prostate) was 34.1 µM. It also gave a GI50 (HCT-116 colon) of 0.582 µM, a TGI (HCT-116 colon) of 5.52 µM and a GI50 (HS 578T breast) of 1.13 µM. The TGI (HS 578T breast) was 5.03 µM, the GI50 (LOX IMVI melanoma) was 2.01 µM and the TGI (LOX IMVI melanoma) was 8.36 µM. For the same compound, the GI50 (OVCAR-8 ovarian) was 1.03 µM and the TGI (OVCAR-8 ovarian) was 11.4 µM.

With `N/C(=N\c1nc2ccccc2s1)NC(=O)Nc1ccccc1Cl` the GI50 (SK-MEL-5 melanoma) was 0.318 µM, the TGI (SK-MEL-5 melanoma) was 13.5 µM and the GI50 (SR leukemia) was 0.0411 µM. The TGI (SR leukemia) was > 32.7 µM, the GI50 (SNB-75 CNS) was 0.0336 µM and the TGI (SNB-75 CNS) was 0.214 µM. The GI50 (SW-620 colon) was 0.0883 µM, the TGI (SW-620 colon) was > 52.3 µM and the GI50 (SK-OV-3 ovarian) was 0.643 µM. For the same compound, the TGI (SK-OV-3 ovarian) was 25.3 µM, the GI50 (PC-3 prostate) was 0.13 µM and the TGI (PC-3 prostate) was > 71.9 µM. It also gave a GI50 (HCT-116 colon) of 0.0852 µM, a TGI (HCT-116 colon) of 3.5 µM and a GI50 (HS 578T breast) of 0.113 µM. It also gave a TGI (HS 578T breast) of 10.7 µM, a GI50 (LOX IMVI melanoma) of 0.144 µM and a TGI (LOX IMVI melanoma) of 5.92 µM. It also gave a GI50 (OVCAR-8 ovarian) of 0.179 µM and a TGI (OVCAR-8 ovarian) of 25.1 µM.

For `CC(C)(C)N1CC(OC(N)=O)C1`, the GI50 (SK-MEL-5 melanoma) was > 100 µM, the TGI (SK-MEL-5 melanoma) was > 100 µM and the GI50 (SR leukemia) was > 100 µM. For the same compound, the TGI (SR leukemia) was > 100 µM, the GI50 (SNB-75 CNS) was > 100 µM and the TGI (SNB-75 CNS) was > 100 µM. For the same compound, the GI50 (SW-620 colon) was > 100 µM, the TGI (SW-620 colon) was > 100 µM and the GI50 (SK-OV-3 ovarian) was > 100 µM. For the same compound, the TGI (SK-OV-3 ovarian) was > 100 µM, the GI50 (PC-3 prostate) was > 100 µM and the TGI (PC-3 prostate) was > 100 µM. The GI50 (HCT-116 colon) was > 100 µM, the TGI (HCT-116 colon) was > 100 µM and the GI50 (HS 578T breast) was > 100 µM. For the same compound, the TGI (HS 578T breast) was > 100 µM, the GI50 (LOX IMVI melanoma) was > 100 µM and the TGI (LOX IMVI melanoma) was > 100 µM. For the same compound, the GI50 (OVCAR-8 ovarian) was > 100 µM and the TGI (OVCAR-8 ovarian) was > 100 µM.
